Laboratory results from patent publication US4183931A, “2-Ketoalkyl-4(3H)-quinazolinones” (Research Corporation, priority 1977, dated 1980).

What was measured:
[1] = NINCDS Maximal Electroshock Seizure Test (MES); format: in vivo, mice; conditions: for minimal effective dose: read-out: MES: dosage level that elicited protection
Procedure: (§1) 1. Neurological Activity Tests. […] Compounds were evaluated for anticonvulsant activity in two seizure models, the maximal electroshock seizure (MES) test and the subcutaneous pentylenetetrazol (Metrazol) seizure threshold (scMet) test.
The Maximal Electroshock Seizure Test was performed according to the method described by Swinyard and coworkers,* wherein a drop of 0.9% saline is instilled in each eye prior to application of corneal electrodes. Seizures are elicited with a 50 Hz alternating current of 50 mA (5 to 7 times that necessary to elicit minimal electroshock seizures) delivered for 0.2 sec via corneal electrodes. This stimulus will produce a maximal seizure in all normal mice. The maximal seizure typically consists of a short period of initial tonic flexion and a prolonged period of hind limb tonic extension, followed by terminal clonus. The seizure lasts about 22 seconds. Abolition of the hind limb tonic extensor component of the seizure is defined as protection and indicates anticonvulsant activity in the test compound.
(§2) The ability of a compound to prevent maximal electroshock seizures is believed to correlate with its ability to prevent the spread of seizure discharge through neural tissue. Activity against maximal electroshock seizures is thought to indicate potential efficacy in the treatment of major motor (grand mal) seizures. […] Selective action in the test is believed to indicate potential efficacy against absence (petit mal) seizures.
(§3) As described earlier, the MES, scMet and Rotorod tests were performed one-half hour and four hours after administration of each compound.
(§4) In the Secondary Evaluation, median effective doses (ED50) are determined in the MES, scMet and Rotorod assays using the procedures defined in Pharmacology, 95, 99-113 (1949).
(§5) Separate groups of animals are used for each time period. The times of peak toxic and anticonvulsant effect are taken from the resulting graph of percent of animals responding vs. time, and the determinations of median effective doses are performed at those times.

[2] = NINCDS Subcutaneous Pentylenetetrazol (Metrazol) Seizure Threshold Test (scMet); format: in vivo, mice; conditions: for minimal effective dose: sc, read-out: scMet: dosage level that elicited protection
Procedure: as §1
Subcutaneous Pentylenetetrazol (Metrazol) Seizure Threshold Test (scMet) produces threshold (clonic) seizures. Pentylenetetrazol is administered subcutaneously as a threshold 0.5% solution (in 0.9% sodium chloride) in a loose fold of skin on the back of the neck in a dose of 85 mg/kg. […] Metrazol is given 10 minutes before the beginning of the test to allow for the delay in onset of Metrazol action. The animal is observed for 30 minutes. Failure to observe even a threshold seizure (a single episode of clonic spasms at least 5 seconds in duration) is defined as protection and indicates anticonvulsant activity in the test compound. These two methods of seizure provocation reliably elicit well-characterizied seizure phenomena.
as §2, §3, §4, §5

[3] = NINCDS rotorod ataxia test (minimal neurotoxicity); format: in vivo, mice
Procedure: (§6) 1. Neurological Activity Tests. The biological testing program is designed to evaluate the following four aspects of drug action: (1) the existence and specificity of anticonvulsant activity; (2) the toxicity, particularly to the central nervous system; and, if the results of (1) and (2) are favorable, (3) the potency and protective index, a comparison between toxic and effective dose and (4) the time course of activity. Compounds were evaluated for anticonvulsant activity in two seizure models, the maximal electroshock seizure (MES) test and the subcutaneous pentylenetetrazol (Metrazol) seizure threshold (scMet) test.
Central nervous system toxicity was evaluated in the rotorod ataxia test. This test is designed to detect minimal neurotoxicity. The animal is placed on a 1-inch diameter knurled plastic rod rotating at 6 rpm. Normal mice can remain indefinitely on a rod rotating at this speed. Neurological deficit is defined as the failure of the animal to remain on the rod for at least 1 minute. This test has a clear end-point, is quantifiable and correlates well with the clinical assessment of minimal toxicity.
(§7) Specific anticonvulsant evaluations performed by NINCDS using MES, scMet and Rotorod assays are presented in Tables III & IV for fourteen new compounds as well as several known compounds. Table III centers attention on 2-substituted-3-o-tolyl-4-(3H)-quinazolinones while Table IV includes the findings for various other 2,3-disubstituted-4(3H)-quinazolinones. As described earlier, the MES, scMet and Rotorod tests were performed one-half hour and four hours after administration of each compound. The tables identify the dosage level that elicited a positive result, such as protection against MES and scMet induced seizures, or loss of balance on the rotorod.
In the Secondary Evaluation, median effective doses (ED50) are determined in the MES, scMet and Rotorod assays using the procedures defined in Pharmacology, 95, 99-113 (1949). In addition, each compound's anticonvulsant activity and neurotoxicity over time are determined by measuring the effect of an intraperitoneally administered estimated median effective dose on maximal electroshock seizures and rotorod performance at intervals of 1/2, 1, 2, 3, 4, 6 and 8 hours.
as §5

[4] = NINCDS primary evaluation, overall classification; format: in vivo, mice; parameters: key to NINCDS Classification: III: did not exhibit activity in any of the 3 categories at dose levels of 300 mg/kg; conditions: primary evaluation
Procedure: as §6, §7

[5] = literature; cited from earlier work
[6] = Neuropharmacological Profile (NPP): general CNS observational screen (depression, righting reflex, ataxia); conditions: i.p., mice, score 0-8
Procedure: Representative compounds according to the present invention were tested for central nervous system activity by Pharmakon Laboratories of Scranton, Pennsylvania. The battery of general observational procedures used is referred to herein as a Neuropharmacological Profile (NPP). Additionally, representative compounds were tested in the Anticonvulsant Screening Project of the National Institutes of Neurological and Communicative Disorders and Stroke (NINCDS) at the University of Utah under the direction of Dr. Ewart A. Swinyard.
(§8) The procedures for the determination of a neuropharmacological profile involved white male mice of the Carworth Farm Strain CF-1 weighing 18 to 22 grams. […] Intraperitoneal injections were administered in logarithmic progression and sequentially. The dose levels employed routinely were 10, 30, 100 and 300 mg/kg, using four male mice at each dose level. Since this test was conducted in a sequential manner, the first does administered was at 300 mg/kg. […] Approximately thirty-eight signs and symptoms of pharmacological activity can be identified.
(§9) The animals were observed continously for one hour and, if no signs of pharmacological or toxicological activity were present at the end of the first hour, they were intermittently checked for activity every fifteen minutes thereafter for two consecutive hours. […] The observation period began immediately following the injection and the animals were then continuously observed for three hours and intermittently checked thereafter for forty-eight hours. The animals were observed and signs and symptoms of pharmacological activity were recorded continuously until no further symptoms developed and until the symptoms that appeared were no longer present. […] In such instances, the animals were observed beyond this period until they returned to normal. Routinely, the number of animals alive at the end of the forty-eight hour observation period was recorded and the LD50 estimated.
The animals are free to move about for evaluation of spatial orientation, alertness and spontaneous motor activity.
(§10) Since this is a general CNS screening procedure, only peak effects were recorded. Certain measures of behavior and neurological deficit were scored in terms of intensity of effect, while most others were determined on an all or none basis. Thus, in scoring measures which were normally present, e.g., spontaneous activity and skin color, an increase in score from 4 to 8 was used to denote stimulation or enhancement of skin color, whereas a decrease in score from 4 to 0 indicated depression or cyanosis. For scoring measures normally absent, e.g., depression, righting reflex and ataxia, activity was reflected as an increase in score from 0 to 8. The 0 to 8 scale was rounded off so that the actual ratings are only 0, 2, 4, 6 and 8. The compounds were also evaluated for anticonvulsant activity by using the maximal electroshock seizure (MES) test. In the MES study, four mice were dosed intraperitoneally at 100 mg/kg and challenged thirty minutes later with 50 mA, 0.2 second duration of electroshock. A protection ratio (number of mice protected from tonic extension .div. number of mice tested) was then established.
At the termination of the test, the results were recorded and tabulated.
(§11) Scores for behavioral symptoms, including depression, righting reflex and ataxia, are the actual numbers reported. Protection against MES is reported as a percentage. Since four animals were involved in this test, the findings are 0% for none protected, 25% for one out of four, etc. […] In order to maintain reasonable uniformity in the reporting of results, each entry corresponds to a dosage level of 100 mg/kg. Any variations from that dosage are indicated.

[7] = NPP maximal electroshock seizure (MES) protection; format: in vivo, white male mice of the Carworth Farm Strain CF-1; conditions: Mus musculus, ip; conducted at 30 mg/kg i.p.
Procedure: as §8, §10, §11

[8] = NPP lethality (estimated LD50); conditions: mouse, in vivo, ip
Procedure: as §8, §9, §11

[9] = literature, mice; cited from earlier work
[10] = literature; cited from earlier work; remark: listed apart in the source
[11] = literature; cited from earlier work; remark: listed apart in the source
[12] = Mus musculus, ip, after 4 hr (value in parentheses)
[13] = Mus musculus, after 4 hr (value in parentheses)
[14] = at 30 mg/kg (value in parentheses)
[15] = Mus musculus, ip, secondary evaluation, at time of peak effect
[16] = after 4 hr (value in parentheses)

SMILES	minimal effective dose [1, 12] [mg/kg]	minimal effective dose [2, 13] [mg/kg]	Rotorod: dosage level that elicited loss of balance ([3]; after 0.5 hr) [mg/kg]	toxicity remark (footnote a to NINCDS classification) [4]	sedative-hypnotic / hypnotic / depressant activity (in words) [5]	minimal effective dose ([2]; Mus musculus, after 0.5 hr) [mg/kg]	Rotorod: dosage level that elicited loss of balance [3, 16] [mg/kg]	other results
Cc1ccccc1-n1c(CC(=O)c2ccc[n+](C)c2)nc2ccccc2c1=O [CO-3-C5 H4 N^+ CH3 I^-]	100	30	100	Extremely toxic				
Cc1ccccc1N1C(=O)c2ccccc2NC1C (centres unmarked) [1,2-dihydro derivative]					abolishes depressant activity			
Cc1ccccc1-n1c(C)nc2ccccc2c1=O [methaqualone, 2-methyl-3-o-tolyl-4(3H)-quinazolinone, reference compound]	300	300	100		comparable to short-acting barbiturates in terms of sedative-hypnotic activity	100	300	CNS Depression [6, 14]: 8; responders at 30 mg/kg [7]: 0%; LD50 at 48 h [8]: > 562 mg/kg; minimal effective dose ([1]; Mus musculus, ip, after 0.5 hr): 100 mg/kg; ED50 [1, 15]: 52 mg/kg; activity in the MES test, comparison methaqualone/mecloqualone ([1]; primary evaluation): more active in the MES test; ED50 [2, 15]: 33.5 mg/kg; TD50 ([3]; mouse, in vivo, ip, secondary evaluation, at time of peak effect): 55 mg/kg; prevention of pentylenetetrazol induced convulsive seizures (in words) [9]: superior to sodium phenobarbitone
O=C(Cc1nc2ccccc2c(=O)n1-c1ccccc1Cl)C(F)(F)F [IVa, 2-(3,3,3-Trifluoroacetonyl)-3-o-chlorophenyl-4(3H)-quinazolinone]			300				300	CNS Depression [6, 14]: 6; CNS Depression ([6]; at 100 mg/kg): 8; LD50 at 48 h [8]: 178 mg/kg; NINCDS Classification [4]: III
Cc1nc2ccccc2c(=O)n1-c1ccccc1Cl [mecloqualone, 2-methyl-3-o-chlorophenyl-4(3H)-quinazolinone, reference compound]	300	100	30	Extremely toxic		30	100	effectiveness in protection against scMet induced seizures, comparison methaqualone/mecloqualone ([2]; primary evaluation): more effective in protection against scMet induced seizures; anticonvulsant activity (in words) [10]: better anticonvulsant agent than methaqualone
Cc1ccccc1-n1c(C)nc2cc(N)ccc2c1=O [H and 7-amino, reference compound]	100	100	100	Extremely toxic		100	300	minimal effective dose ([1]; Mus musculus, ip, after 0.5 hr): 100 mg/kg
CCN(CC)c1ccc(-n2c(C)nc3ccccc3c2=O)cc1 [2-methyl-3-(p-diethylaminophenyl)-4(3H)-quinazolinone]					equal hypnotic activity to methaqualone			
Cc1ccccc1-n1c(C)nc2c(c1=O)CCCC2					lack of hypnotic activity			
CCC1(c2ccccc2)C(=O)NC(=O)NC1=O [phenobartital]								protection against maximal electro-shock seizures (in words) [11]: better protector against maximal electro-shock seizures (MES) then methaqualone
